These are literature values, as cited in US11452288B1, “Innocuous sterilant using hemocyanin and functionalized fullerenes with broad-spectrum intracellular and interstitial microbiocidal and radical scavenging effects for packaged matter, biologics and organics including liquids, gases, tissue, organs, cells, and limbs with copper mediated oxygenation …” (priority 2022, dated 2022).

For one data set, the system named is endothelial. Conditions: optimal antifungal concentrations in the nutrient media.
Data set [1] deals with fungal donor rim cultures. Conditions: additive to Optisol-GS, compared with Optisol-GS alone.

As for `C[C@@H]1[C@H](O)[C@@H](C)/C=C/C=C/C=C/C=C/C=C/C=C/C=C/[C@H](O[C@@H]2O[C@H](C)[C@@H](O)[C@H](N)[C@@H]2O)C[C@@H]2O[C@](O)(C[C@@H](O)C[C@@H](O)[C@H](O)CC[C@@H](O)C[C@@H](O)CC(=O)O[C@H]1C)C[C@H](O)[C@H]2C(=O)O` [Amphotericin B], the endothelial toxicity result in the data set on endothelial was “significant endothelial toxicity”.

For `C[C@@H](c1ncncc1F)[C@](O)(Cn1cncn1)c1ccc(F)cc1F` [voriconazole], the “rate of positive fungal donor rim cultures” value in data set [1] is reported as “significant reduction”.
